Test results: patent US20080125432A1 (Devgen NV, priority 2004, published 2008)

Target: T1, human Kv4.3 (Homo sapiens, UniProt Q9UK17)
T1 construct: expressed in transfected cells; host or cells: transgenic C. elegans strain UG1755 (N2 injected with plasmid pGV8, integrated array)
T1 sequence (Q9UK17 1-655): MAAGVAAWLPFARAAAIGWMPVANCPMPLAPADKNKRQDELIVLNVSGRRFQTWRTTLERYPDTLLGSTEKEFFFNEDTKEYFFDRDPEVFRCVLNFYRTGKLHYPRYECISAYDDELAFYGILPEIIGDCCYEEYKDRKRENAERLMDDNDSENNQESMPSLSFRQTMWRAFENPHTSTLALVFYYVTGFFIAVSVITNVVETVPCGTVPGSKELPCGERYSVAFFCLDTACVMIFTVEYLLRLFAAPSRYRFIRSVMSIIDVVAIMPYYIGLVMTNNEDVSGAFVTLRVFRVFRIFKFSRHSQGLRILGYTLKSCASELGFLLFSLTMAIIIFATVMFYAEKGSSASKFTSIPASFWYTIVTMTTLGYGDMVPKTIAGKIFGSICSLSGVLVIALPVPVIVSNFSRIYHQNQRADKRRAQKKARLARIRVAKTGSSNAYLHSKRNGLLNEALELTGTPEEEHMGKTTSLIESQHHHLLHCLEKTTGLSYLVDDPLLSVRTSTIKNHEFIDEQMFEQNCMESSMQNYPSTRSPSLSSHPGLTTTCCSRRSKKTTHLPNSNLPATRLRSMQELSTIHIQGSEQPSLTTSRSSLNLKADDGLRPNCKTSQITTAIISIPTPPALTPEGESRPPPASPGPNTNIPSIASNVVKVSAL
Test: Electropharyngeogram (EPG) recording on dissected pharynxes of transgenic C. elegans strain UG1755
Procedure: The method to describe the construction of a transgenic C. elegans strain expressing human Kv4.3 has been described in WO 03/097682. Briefly, the actual used strain UG1755 has been generated by microinjection into the gonad of a wild-type strain N2 with a mix of 5 ng/μl plasmid pGV8 (human Kv4.3), 20 ng/μl pDW2821 (GFP-marker) and 40 ng/ul genomic C. elegans DNA. Transgenic animals have been isolated and submitted to integration of the extra-chromosomal array into the genome of C. elegans. A line with 50% transmission of the functional expressed human Kv4.3 has been mutagenized with gamma irradiation using a Cobalt source. About 12000 F2 animals have been singled out and their progeny has been screened for the 100% transmission of the GFP marker. Lines with 100% transmission of GFP have been considered as potentially integrated. These lines have been further tested and out-crossed with N2 strain two-times. All lines obtained have been tested for viability, GFP and human Kv4.3 expression. At the end of a selection process, UG1755 was identified as most suitable C. elegans strain amenable to high throughput screening (HTS). […] Briefly, dissected pharynxes of UG1755 C. elegans animals have been prepared and Electropharyngeograms (EPGs) have been recorded using an Axopatch-1D amplifier (Axon instruments). […] The number of ultra short EPGs (10-20 ms) and normal EPGs (100-200 ms) has been analyzed and given as ratio in percentage. […] In addition, standard qRT-PCR confirmed the presence of the human Kv4.3 transgene in UG1755 as well as human Kv4.3 protein has been detected with the human Kv4.3 antibody P 0358 in the pharynx of UG1755 animals.
Introducing the human Kv4.3 channel into the C. elegans pharynx influences the C. elegans action potential in a characteristic fashion. […] The pumping end-point can be technically translated into a high-throughput read-out by the use of a pro-fluorescent dye. […] After a defined incubation period, the change of fluorescence intensity in the intestine can be measured with a plate reader.

After Application of Compound Ratio Ultra short to Normal EPGs in % (100 μM Flecainide, strain UG1755, n = 15, before application 83 ± 13) [%] | Compound | ultra short action potentials of the human Kv4.3 transgenic C. elegans pharynx
– | Nc1ccncc1 [4-aminopyridine] | restored to normal action potentials
53 ± 24 | O=C(NCC1CCCCN1)c1cc(OCC(F)(F)F)ccc1OCC(F)(F)F (stereo not drawn) [Flecainide] | restored to normal action potentials
